Data on ten molecules can be found in patent publication US20230066011A1, “PYRROLOPYRIMIDINE DERIVATIVE, AND PHARMACEUTICAL COMPOSITION FOR PREVENTING OR TREATING PROTEIN KINASE-RELATED DISEASE COMPRISING SAME AS ACTIVE INGREDIENT” (VORONOI CO., LTD., priority 2019, published 2023).

Some results are limits rather than exact numbers.

For one test, the target named is T1, human GST-CLK1 (Homo sapiens, UniProt P49759).
T1 construct: purified human GST-CLK1 (129-end, SignalChem) enzyme; purchased SignalChem
Description: GST-CLK1 enzyme inhibition, ADP-Glo kinase assay. The test is classed as biochemical. To be noted: ATP 10 μM, GST-CLK1 129-end. In a few lines: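 ADP-Glo luminescence read-out, relative to untreated solvent control, gave IC50 (nM) from triplicate data sets. Reactions ran an hour at 25° C with 3 ng GST-CLK1 (residues 129-end), 10 μM ATP and specific substrate in Tris-HCl pH 7.4 buffer with MgCl2, BSA and DTT.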
For orientation: ADP-Glo first removes unused ATP, then detects ADP through luciferase.

The next test has as its target DYRK1 (Homo sapiens, UniProt Q13627). Description: Kinase HotSpot service (Reaction Biology Corporation), DYRK1. The test is classed as biochemical. To be noted: ATP 10 uM, read-out: DYRK1 IC50 (values indicated by *). How it is done: The inhibitory activities of the compounds were measured at a 3-fold concentration gradient starting from a maximum compound concentration of […], and the values measured using the Kinase HotSpot service (Reaction Biology Corporation) are indicated by an asterisk (*).
All the experimental methods were performed as provided by the Kinase HotSpot Customer Protocol (http://www.reactionbiology.com//Kinase_Assay_Protocol).

Another test concerns MDA-MB-468 cell line. Description: Inhibition of proliferation of MDA-MB-468 cancer cells (Cell Titer-Glo). The test is classed as cell-based. In a few lines:
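A 72-hour treatment with compound (eleven final concentrations, 3-fold apart, top 10 μM) of cells seeded at 2,000 per well preceded a Cell Titer-Glo luminescence read, from which GI50 was obtained.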
For orientation: ATP-based viability assays read luminescence as a measure of living cells.

Another test has as its target LRRK2 (Homo sapiens, UniProt Q5S007). Put plainly: LRRK2 enzyme inhibition, ADP-Glo kinase assay. The test is classed as biochemical. More on the design: purchased Invitrogen PR8604B. As to conditions: ATP 10 μM. Summed up:
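ADP-Glo luminescent read-out of ADP formed by purified human LRRK2 enzyme (25 ng), 10 μM ATP, 0.2 μg substrate, 25° C for 2 h, Tris-HCl pH 7.4 buffer with MgCl2, BSA, DTT. Inhibition versus untreated solvent control over twelve final concentrations (50 μM downward) gives IC50.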

The next test relates to IL-6. Put plainly: Inhibition of LPS-induced IL-6 secretion of THP-1 monocytes (ELISA). The test is classed as cell-based, human. To be noted: compound 0.5 μM, LPS 500 ng/mL, 24 hours; for inhibition at 0.5 µM: Homo sapiens, THP-1, read-out: THP1/IL6 (% inhib). How it is done: (§1) To evaluate an inhibitory effect on cytokine secretion of monocytes, THP-1 cells (ATCC, #TIB-202) as a human-derived monocyte line were cultured in an RPMI-1640 (Hyclone, SH30027.01) medium supplemented with 10% fetal bovine serum (Hyclone, SH30084.03), 1% penicillin streptomycin (Welgene, LS202-02), and 50 μM 2-mercaptoethanol (Gibco, #21985023). In the test, the cells were seeded in a 48-well plate (SPL, #30048) at a density of 1.5 to 2×10^5 cells/250 μL per well, and cultured at 37° C. for 16 hours in a 5% CO2 incubator. Thereafter, the compound was diluted with DMSO so that the final concentration of the compound was 0.5 μM. Then, the cells were treated with the diluted compound before an hour of treatment with lipopolysaccharides (LPS) (Sigma, #L6529). After the treatment with the compound, the cells were treated with LPS so that the final concentration was 500 ng/mL. Then, a cell culture broth was collected after 24 hours of culture, and levels of cytokine IL-6 (R&D Systems, #D6050) and TNF-α (R&D Systems, #DTA00D) comprised in the culture broth were measured using respective ELISA kits. After an experiment was performed according to the manufacturer's guidelines, cell analysis was performed by measuring the optical density at 450 nm using a microplate reader.

A further test relates to human DYRK1A and tau. Put plainly: Inhibition of tau phosphorylation, ClariCELL Kinase Cell-Based Assay, HEK 293 cells expressing human DYRK1A and tau. As to conditions: for inhibition at 1 µM: HEK293, read-out: % inhibition at 1 uM, tau phosphorylation, compound 1 uM; for inhibition at 0.25 µM / inhibition at 0.5 µM: HEK293, tau phosphorylation. Summed up:
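Cell-based service assay: HEK 293 cells transiently expressing human DYRK1A and tau were treated with compound and lysed. Released tau was plate-captured and its phosphorylation quantified by ELISA with a phospho-tau-specific antibody.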

The next test concerns the target T2, human GST-DYRK1A (Homo sapiens, UniProt Q13627).
T2 construct: purified human GST-DYRK1A (full length, Thermo Scientifics) enzyme; purchased Thermo Scientifics
Put plainly: GST-DYRK1A enzyme inhibition, ADP-Glo kinase assay. The test is classed as biochemical. As to conditions: ATP 10 μM, GST-DYRK1A full length, read-out: DYRK1 IC50. In a few lines:
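Full-length enzyme (10 ng) was incubated with 10 μM ATP and a specific substrate for 1 h at 25 °C in 40 mM Tris-HCl pH 7.4, 20 mM MgCl2, 0.5 mg/mL BSA, 50 μM DTT. Luminescence was read against a solvent control, and IC50 values were derived from 3 data sets.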

For a further test, the system named is TNF-α. Put plainly: Inhibition of LPS-induced TNF-α secretion of THP-1 monocytes (ELISA). The test is classed as cell-based, human. As to conditions: compound 0.5 μM, LPS 500 ng/mL, 24 hours; for inhibition at 0.5 µM: Homo sapiens, THP-1, read-out: THP-1/TNF-α (% inhib). As for the experimental part:
as §1
A general note: In an ELISA, binding on a coated surface is turned into a signal by an enzyme label.

For the next test, the target named is LRRK2 (G2019S) (Homo sapiens, UniProt Q5S007, G2019S). Put plainly: LRRK2 G2019S enzyme inhibition, ADP-Glo kinase assay. The test is classed as biochemical. More on the design: purchased SignalChem L10-12GG. To be noted: ATP 25 μM. Summed up: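 IC50 derived from luminescent ADP-Glo readout against untreated solvent control, twelve final compound concentrations from 50 μM downward. Reaction: recombinant human LRRK2 G2019S enzyme, 25 μM ATP, substrate, pH 7.4 Tris buffer with MgCl2/BSA/DTT, 25° C. for 2 hours.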

[1] abbreviates: Homo sapiens, MDA-MB-468, 72 hours.

Chain of LRRK2 (Q5S007 970-2527 limits assumed): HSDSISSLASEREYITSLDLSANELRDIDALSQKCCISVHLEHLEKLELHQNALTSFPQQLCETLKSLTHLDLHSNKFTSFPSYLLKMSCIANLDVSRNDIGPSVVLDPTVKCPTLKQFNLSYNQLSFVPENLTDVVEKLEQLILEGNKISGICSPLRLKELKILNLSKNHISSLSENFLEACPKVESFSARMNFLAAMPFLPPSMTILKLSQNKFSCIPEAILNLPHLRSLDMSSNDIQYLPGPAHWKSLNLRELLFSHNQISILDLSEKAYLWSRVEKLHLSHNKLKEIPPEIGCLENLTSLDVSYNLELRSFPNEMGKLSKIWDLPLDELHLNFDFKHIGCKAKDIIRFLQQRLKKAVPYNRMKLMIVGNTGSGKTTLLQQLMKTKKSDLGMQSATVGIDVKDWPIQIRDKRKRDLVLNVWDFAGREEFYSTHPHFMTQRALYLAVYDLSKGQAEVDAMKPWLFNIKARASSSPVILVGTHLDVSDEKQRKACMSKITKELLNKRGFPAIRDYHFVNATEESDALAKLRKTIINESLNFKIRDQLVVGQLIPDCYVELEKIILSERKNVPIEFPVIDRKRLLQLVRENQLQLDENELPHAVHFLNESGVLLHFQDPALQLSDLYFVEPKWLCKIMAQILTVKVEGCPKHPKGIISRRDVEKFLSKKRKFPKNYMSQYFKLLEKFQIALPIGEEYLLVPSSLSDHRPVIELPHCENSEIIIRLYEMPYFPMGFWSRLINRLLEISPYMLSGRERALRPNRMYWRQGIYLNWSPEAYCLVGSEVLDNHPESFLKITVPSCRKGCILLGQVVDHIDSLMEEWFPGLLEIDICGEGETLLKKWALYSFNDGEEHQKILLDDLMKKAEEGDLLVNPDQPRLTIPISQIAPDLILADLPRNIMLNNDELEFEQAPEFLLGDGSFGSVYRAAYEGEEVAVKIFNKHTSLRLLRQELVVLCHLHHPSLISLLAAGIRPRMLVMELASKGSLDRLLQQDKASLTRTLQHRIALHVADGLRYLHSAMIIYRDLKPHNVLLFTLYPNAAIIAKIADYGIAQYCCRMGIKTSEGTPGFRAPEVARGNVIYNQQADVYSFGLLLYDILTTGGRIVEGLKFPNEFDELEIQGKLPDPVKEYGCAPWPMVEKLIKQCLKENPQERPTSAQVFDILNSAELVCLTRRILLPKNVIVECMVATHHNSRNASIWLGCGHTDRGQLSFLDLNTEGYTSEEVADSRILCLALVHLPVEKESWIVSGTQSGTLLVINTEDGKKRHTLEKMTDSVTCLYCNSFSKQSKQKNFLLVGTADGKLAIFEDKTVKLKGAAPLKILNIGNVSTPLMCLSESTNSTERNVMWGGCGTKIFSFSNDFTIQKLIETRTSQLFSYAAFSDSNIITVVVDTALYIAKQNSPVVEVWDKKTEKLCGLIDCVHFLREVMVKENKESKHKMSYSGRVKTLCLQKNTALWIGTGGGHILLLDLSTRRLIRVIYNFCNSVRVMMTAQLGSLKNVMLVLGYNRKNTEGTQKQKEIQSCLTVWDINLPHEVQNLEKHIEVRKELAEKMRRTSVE
T1 sequence (P49759 129-484 limits assumed): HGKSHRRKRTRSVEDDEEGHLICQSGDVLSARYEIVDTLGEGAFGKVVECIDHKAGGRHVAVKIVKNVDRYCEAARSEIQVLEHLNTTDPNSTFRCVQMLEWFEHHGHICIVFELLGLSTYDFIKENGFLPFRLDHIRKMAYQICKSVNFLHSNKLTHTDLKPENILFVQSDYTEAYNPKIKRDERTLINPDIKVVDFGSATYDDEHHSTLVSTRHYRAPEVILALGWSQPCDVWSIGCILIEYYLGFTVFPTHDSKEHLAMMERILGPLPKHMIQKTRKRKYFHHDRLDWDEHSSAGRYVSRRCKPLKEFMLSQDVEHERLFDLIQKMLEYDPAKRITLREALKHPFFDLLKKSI
Chain of LRRK2 (G2019S) (Q5S007 970-2527 G2019S limits assumed): as the sequence (Q5S007 970-2527 limits assumed) above, with G1050S counted along it

As a reminder, the IC50 is the concentration needed to halve the response being measured. Usually GI50 stands for the concentration that inhibits growth by half. A higher GI50 goes with lower sensitivity of the cells. Consider `COc1cc(P2(=O)CCN(C3CC3)CC2)ccc1Nc1nc(C2CC2)c2c(C(F)(F)F)c[nH]c2n1` [Example 394, 1-cyclopropyl-4-(4-((4-cyclopropyl-5-(trifluoromethyl)-7H-pyrrolo[2,3-d]pyrimidin-2-yl)amino)-3-methoxyphenyl)-1,4-azaphosphinane4-oxide], for which the 50% inhibitory concentration (IC50) at human GST-CLK1 is 301 to 1000 nM; at DYRK1, under 100 nM; against LRRK2, under 100 nM. In the test on MDA-MB-468 cell line (setting [1]), this molecule yielded a GI50 of 301 to 1000 nM.
For `COc1cc(P(C)(C)=O)ccc1Nc1nc(C2CC2)c2c(C(F)(F)F)c[nH]c2n1` [Example 229, (4-((4-cyclopropyl-5-(trifluoromethyl)-7H-pyrrolo[2,3-d]pyrimidin-2-yl)amino)-3-methoxyphenyl)dimethylphosphine oxide], the values for the IC50 against human GST-CLK1 and at DYRK1 were 101 to 300 nM and under 100 nM, respectively.
`N#Cc1c[nH]c2nc(Nc3ccc(C(=O)N4CCOCC4)c4c3OCCO4)nc(C3CC3)c12` [Example 220, 4-cyclopropyl-2-((8-(morpholine-4-carbonyl)-2,3-dihydrobenzo[b][1,4]dioxin-5-yl)amino)-7H-pyrrolo[2,3-d]pyrimidine-5-carbonitrile]: the half-inhibitory concentration (IC50) on human GST-CLK1, at DYRK1 and against LRRK2 was under 100 nM in each case. The same molecule showed a 50% growth inhibitory concentration (GI50) with MDA-MB-468 cell line (setting [1]) of 101 to 300 nM.
`CNc1nc(Nc2ccc(C(=O)N3C[C@@H]4C[C@H]3CO4)c3c2OCCO3)nc2[nH]cc(C(F)(F)F)c12` [Example 408, ((1S,4S)-2-oxa-5-azabicyclo[2.2.1]heptan-5-yl)(8-((4-(methylamino)-5-(trifluoromethyl)-7H-pyrrolo[2,3-d]pyrimidin-2-yl)amino)-2,3-dihydrobenzo[b] [1,4]dioxin-5-yl)methanone]: the inhibition at 0.5 µM came out at 19.5% with IL-6; 40.3% in the test on human DYRK1A and tau (compound 0.5 uM); 4.3% in the test on TNF-α. For the same molecule, the 50% inhibitory concentration (IC50) against human GST-CLK1, at LRRK2 and at human GST-DYRK1A was under 100 nM each time. For the same molecule, the inhibition at 1 µM in the test on human DYRK1A and tau came out at 48.5%. In the test on human DYRK1A and tau (compound 0.25 uM), this molecule gave an inhibition at 0.25 µM of 20.6%.
In the case of `CCc1nc(Nc2ccc(C(=O)N3CCC(N4CCOCC4)CC3)c3c2OCCO3)nc2[nH]cc(C(F)(F)F)c12` [Example 395, (8-((4-ethyl-5-(trifluoromethyl)-7H-pyrrolo[2,3-d]pyrimidin-2-yl)amino)-2,3-dihydrobenzo [b][1,4]dioxin-5-yl)(4-morpholino-piperidin-1-yl)methanone], the half-inhibitory concentration (IC50) against human GST-CLK1 was 101 to 300 nM; at DYRK1, under 100 nM; on LRRK2, under 100 nM.
As to `O=C(c1ccc(Nc2nc(C3CC3)c3c(C(F)(F)F)c[nH]c3n2)c2c1CCO2)N1CC[C@@H](N2CCOCC2)C1` [Example 471, (R)-(7-((4-cyclopropyl-5-(trifluoromethyl)-7H-pyrrolo[2,3-d]pyrimidin-2-yl)amino)-2,3-dihydrobenzo-furan-4-yl)(3-morpholino-pyrrolidin-1-yl)methanone], the IC50 at human GST-CLK1 and on DYRK1 was under 100 nM throughout. Besides, the inhibition at 1 µM in the test with human DYRK1A and tau was 42.8%. Further, in the test on human DYRK1A and tau (compound 0.25 uM), the inhibition at 0.25 µM came out at 3.9%. In the test on human DYRK1A and tau (compound 0.5 uM), this molecule returned an inhibition at 0.5 µM of 29.6%.
Turning to `O=C(c1ccc(Nc2nc(N[C@H]3CCOC3)c3c(C(F)(F)F)c[nH]c3n2)c2c1OCCO2)N1CCN(C2COC2)CC1` [Example 418, (S)-(4-(oxetan-3-yl)piperazin-1-yl)(8-((4-((tetra-hydrofuran-3-yl)amino)-5-(trifluoromethyl)-7H-pyrrolo[2,3-d]pyrimidin-2-yl)amino)-2,3-dihydrobenzo[b] [1,4]dioxin-5-yl)methanone], the inhibition at 0.5 µM turned out to be 35.5% with IL-6; 55.4% with human DYRK1A and tau (compound 0.5 uM); 8.5% in the test with TNF-α. Further, the IC50 at human GST-CLK1, on human GST-DYRK1A and at LRRK2 (G2019S) was under 100 nM throughout. Further, the inhibition at 1 µM in the test with human DYRK1A and tau is 80.2%. In the test with human DYRK1A and tau (compound 0.25 uM), this molecule displayed an inhibition at 0.25 µM of 46.2%.
The term % inhibition denotes the drop in the measured response relative to a control, in per cent. On to `CCCNc1nc(Nc2ccc(C(=O)N3CCN(C4COC4)CC3)c3c2OCCO3)nc2[nH]cc(C(F)(F)F)c12` [Example 402, (4-(oxetan-3-yl)piperazin-1-yl)(8-((4-(propylamino)-5-(trifluromethyl)-7H-pyrrolo[2,3-d]pyrimidin-2-yl)amino)-2,3-dihydrobenzo[b] [1,4]dioxin-5-yl)methanone], for which, in the test on IL-6, the “THP1/IL6 (% inhib)” value is recorded as 18.2 % inhib. The IC50 at human GST-CLK1, on human GST-DYRK1A and against LRRK2 (G2019S) was under 100 nM throughout. The “% inhibition at 0.25 uM” value in the test on human DYRK1A and tau (tau phosphorylation, compound 0.25 uM) is recorded as 7.9%. Also, the “% inhibition at 0.5 uM” value in the test on human DYRK1A and tau (tau phosphorylation, compound 0.5 uM) amounted to 26.5%. Further, the “% inhibition at 1 uM” value in the test on human DYRK1A and tau (tau phosphorylation, compound 1 uM) was determined as 61.7%. The same molecule showed a concentration for 50% growth inhibition (GI50) with MDA-MB-468 cell line (72 hours) of 301 to 1000 nM. Moreover, the “THP-1/TNF-α (% inhib)” value in the test with TNF-α is reported as 1.4 % inhib.
On to `CCc1nc(Nc2ccc(P3(=O)CCN(C4CC4)CC3)cc2OC)nc2[nH]cc(C(F)(F)F)c12` [Example 396, 1-cyclopropyl-4-(4-((4-ethyl-5-(trifluoromethyl)-7H-pyrrolo[2,3-d]pyrimidin-2-yl)amino)-3-methoxyphenyl)-1,4-azaphosphinane-4-oxide], for which the IC50 against human GST-CLK1 is 301 to 1000 nM; on DYRK1, under 100 nM; at LRRK2 it was 101 to 300 nM.
With `O=S(=O)(c1ccc(Nc2nc(C3CC3)c3c(C(F)(F)F)c[nH]c3n2)c2c1OCCO2)N1CCOCC1` [Example 470, 4-cyclopropyl-N-(8-(morpho-linosulfonyl)-2,3-dihydrobenzo [b][1,4]dioxin-5-yl)-5-(trifluoromethyl)-7H-pyrrolo[2,3-d]pyrimidin-2-amine], the IC50 was 301 to 1000 nM against human GST-CLK1 and under 100 nM at DYRK1. For the same molecule, in the test with human DYRK1A and tau, the inhibition at 1 µM stood at 29.1%. In the test with human DYRK1A and tau (compound 0.25 uM), this molecule came in with an inhibition at 0.25 µM of 5.8%. In the test with human DYRK1A and tau (compound 0.5 uM), the inhibition at 0.5 µM turned out to be 19.2%.
